The results in this text go back to patent publication US20250268903A1, “RXFP1 AGONISTS” (BRISTOL-MYERS SQUIBB COMPANY, priority 2021, published 2025).

As usually defined, the EC50 is the concentration that produces a half-maximal response. Read a low EC50 as higher potency in that assay.

The experiment concerns the target T1, human RXFP1 (Homo sapiens, UniProt Q9HBX9).
T1 construct: expressed in transfected cells
T1 sequence (Q9HBX9 1-757): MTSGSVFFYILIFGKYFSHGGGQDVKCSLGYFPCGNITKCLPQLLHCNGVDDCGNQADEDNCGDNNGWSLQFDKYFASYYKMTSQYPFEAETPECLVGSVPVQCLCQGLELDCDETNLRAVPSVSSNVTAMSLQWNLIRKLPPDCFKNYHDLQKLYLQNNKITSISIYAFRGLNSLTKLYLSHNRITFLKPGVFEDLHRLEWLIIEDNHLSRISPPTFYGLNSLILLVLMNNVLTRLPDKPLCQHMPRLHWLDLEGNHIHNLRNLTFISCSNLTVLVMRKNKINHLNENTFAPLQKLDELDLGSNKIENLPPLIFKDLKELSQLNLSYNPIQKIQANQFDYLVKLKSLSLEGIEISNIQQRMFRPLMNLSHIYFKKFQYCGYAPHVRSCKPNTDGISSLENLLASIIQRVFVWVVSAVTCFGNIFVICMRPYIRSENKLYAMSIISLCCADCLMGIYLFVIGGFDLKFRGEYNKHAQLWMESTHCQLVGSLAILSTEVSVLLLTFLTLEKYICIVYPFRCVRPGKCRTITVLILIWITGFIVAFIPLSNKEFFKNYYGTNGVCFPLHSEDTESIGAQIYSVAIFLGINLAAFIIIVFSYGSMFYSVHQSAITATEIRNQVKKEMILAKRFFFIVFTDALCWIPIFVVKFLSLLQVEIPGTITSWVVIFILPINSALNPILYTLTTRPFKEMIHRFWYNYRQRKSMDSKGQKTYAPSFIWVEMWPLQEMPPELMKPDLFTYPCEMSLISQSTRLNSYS
Description: hRXFP1 HEK293 cAMP assay (HTRF). In kind it is cell-based. The settings on record: HEK293 cells stably expressing human RXFP1, 30 min at room temperature. Here is the method: RXFP1 Cyclic Adenosine Monophosphate (cAMP) Assays. […] Cells were dissociated and suspended in assay buffer. The assay buffer was HBSS buffer (with calcium and magnesium) containing 20 mM HEPES, 0.05% BSA, and 0.5 mM IBMX. Cells (3000 cells per well, except 1500 cell per well for HEK293 cells stably expressing human RXFP1) were added to 384-well Proxiplates (Perkin-Elmer). Cells were immediately treated with test compounds in DMSO (2% final) at final concentrations in the range of 0.010 nM to 50 μM. Cells were incubated for 30 min at room temperature. The level of intracellular cAMP was determined using the HTRF HiRange cAMP assay reagent kit (Cisbio) according to manufacturer's instructions. Solutions of cryptate conjugated anti-cAMP and d2 fluorophore-labelled cAMP were made in a supplied lysis buffer separately. Upon completion of the reaction, the cells were lysed with equal volume of the d2-cAMP solution and anti-cAMP solution. […] The potency and activity of a compound to […] cAMP production was then determined by fitting to a 4-parametric logistic equation from a plot of cAMP level versus compound concentrations.

`COc1ccc(CN2C(=O)NC3(CCOC3)C2=O)cc1C(=O)N[C@H]1[C@@H](C(=O)Nc2ccc(F)c(C(F)(F)F)c2)[C@H]2CC[C@@H]1/C2=C\C1CC1` (stereo partly drawn) [Example 295, (1R,2S,3R,4R,7Z)-7-(cyclopropyl-methylidene)-3-[5-({2,4-dioxo-7-oxa-1,3-diazaspiro[4.4]nonan-3-yl}methyl)-2-methoxybenzamido]-N-[4-fluoro-3-(trifluoromethyl)phenyl]bicyclo [2.2.1]heptane-2-carboxamide] had a 50% effective concentration (EC50) of 70.4 nM. Consider `COc1ccc(S(=O)(=O)CCO)cc1C(=O)N[C@H]1[C@@H](C(=O)Nc2ccc(F)c(C(F)(F)F)c2)[C@H]2CC[C@@H]1/C2=C\C(F)(F)F` [Example 4, (1R,2S,3R,4R,Z)—N-(4-fluoro-3-(trifluoromethyl)phenyl)-3-(5-((2-hydroxyethyl)sulfonyl)-2-methoxybenzamido)-7-(2,2,2-trifluoroethylidene) bicyclo[2.2.1]heptane-2-carboxamide], for which a half-maximal response (EC50) required 337 nM. In the case of `COc1ccc(C2CC3CC(CO)CC32)cc1C(=O)N[C@H]1[C@@H](C(=O)Nc2ccc(F)c(C(F)(F)F)c2)[C@H]2CC[C@@H]1/C2=C\C1CC1` (single isomer, unassigned) [Example 348], a half-maximal response (EC50) required 34 nM.

On to `COc1ccc(C(=O)N2CC[C@@H](CO)C2)cc1C(=O)N[C@H]1[C@@H](C(=O)Nc2ccc(F)c(C(F)(F)F)c2)[C@H]2CC[C@@H]1/C2=C\C1CC1` [Example 245, (1R,2S,3R,4R,7Z)-7-(cyclopropyl-methylidene)-N-[4-fluoro-3-(trifluoromethyl)phenyl]-3-{5-[(3R)-3-(hydroxymethyl)pyrrolidine-1-carbonyl]-2-methoxybenzamido} bicyclo[2.2.1]heptane-2-carboxamide], for which the EC50 was determined as 37.8 nM. The value for `COc1ccc(C(F)(F)F)cc1C(=O)N[C@@H]1C2CCC(C2=C(C)C)[C@@H]1C(=O)Nc1ccc(F)c(C(F)(F)F)c1` (stereo partly shown) [Example 359] was 1500 nM; that for `COc1ccc(CCCCC(F)(F)F)cc1C(=O)NC1C2CCC(/C2=C/C2CCC2)[C@@H]1C(=O)Nc1ccc(F)c(C(F)(F)F)c1` (stereo partly shown) [Example 193, (7Z)-7-(cyclobutylmethyli-dene)-N-[4-fluoro-3-(trifluoromethyl)phe-nyl]-3-[2-methoxy-5-(5,5,5-trifluoropentyl)benz-amido]bicyclo[2.2.1] heptane-2-carboxamide] was 55 nM. For `COc1ccc(C2CC2C(=O)N2CCC(O)CC2)cc1C(=O)N[C@H]1[C@@H](C(=O)Nc2ccc(F)c(C(F)(F)F)c2)[C@H]2CC[C@@H]1/C2=C\C(F)(F)F` (single isomer, unassigned) [Example 322], the EC50 turned out to be 331 nM. Against the preceding compound, the EC50 is about 6-fold higher.

Regarding `COc1ccc(CCc2ccc(OC)c(C(=O)NC3C4CCC(/C4=C/C(F)(F)F)[C@@H]3C(=O)Nc3ccc(F)c(C(F)(F)F)c3)c2)cc1` (stereo partly shown) [Example 188, (7Z)-N-[4-fluoro-3-(trifluoromethyl)phe-nyl]-3-{2-methoxy-5-[2-(4-methoxyphenyl)ethyl]benzamido}-7-(2,2,2-trifluoroethylidene)bi-cyclo[2.2.1]heptane-2-carboxamide], the EC50 stood at 56 nM.

Take `COc1ccc(COCC2COC2)cc1C(=O)N[C@@H]1C2CCC(/C2=C/C2CC2)[C@@H]1C(=O)Nc1ccc(F)c(C(F)(F)F)c1` (stereo partly drawn) [Example 16, (2S,3R,7Z)-7-(cyclopropylmethyli-dene)-N-[4-fluoro-3-(trifluoromethyl)phe-nyl]-3-(2-methoxy-5-{[(oxetan-3-yl)methoxy]methyl}benzamido)bi-cyclo[2.2.1]hept-ane-2-carboxamide]: the EC50 is 94 nM.

As for `COc1ccc(COC2CCOC2)cc1C(=O)N[C@@H]1C2CCC(/C2=C/C(F)(F)F)[C@@H]1C(=O)Nc1ccc(F)c(C(F)(F)F)c1` (stereo partly drawn) [Example 27, (2S,3R,7Z)-N-[4-fluoro-3-(trifluoromethyl)phe-nyl]-3-{2-methoxy-5-[(oxolan-3-yloxy)methyl]benza-mido}-7-(2,2,2-trifluoroethylidene)bi-cyclo[2.2.1]heptane-2-carboxamide], the response was half-maximal at 4680 nM (EC50). The value for `COc1ccc(CCC(C)(C)O)cc1C(=O)NC1C2CCC(/C2=C/C2CCOCC2)[C@@H]1C(=O)Nc1ccc(F)c(C(F)(F)F)c1` (stereo partly shown) [Example 166, (7Z)-N-[4-fluoro-3-(trifluoromethyl)phe-nyl]-3-[5-(3-hydroxy-3-methylbutyl)-2-methoxybenzamido]-7-[(oxan-4-yl)methylidene]bicy-clo[2.2.1]heptane-2-carboxamide] was 129 nM; that for `COc1ccc([C@H]2C[C@@H](O)C2)cc1C(=O)NC1C2CCC(/C2=C/C(F)(F)F)[C@@H]1C(=O)Nc1ccc(F)c(C(F)(F)F)c1` (stereo partly drawn) [Example 146, (2S,7Z)-N-[4-fluoro-3-(trifluoromethyl)phe-nyl]-3-{2-methoxy-5-[(1s,3s)-3-hydroxycyclobutyl]benz-amido}-7-(2,2,2-trifluoroethylidene)bi-cyclo[2.2.1]heptane-2-carboxamide] was 234 nM. On to `O=C(N[C@H]1[C@@H](C(=O)Nc2ccc(F)c(C(F)(F)F)c2)[C@H]2CC[C@@H]1/C2=C\C(F)(F)F)c1cc(C#CCO)ccc1OCCO` [Example 106, (1R,2S,3R,4R,Z)—N-(4-fluoro-3-(trifluoromethyl)phenyl)-3-(2-(2-hydroxyethoxy)-5-(3-hydroxyprop-1-yn-1-yl)benzamido)-7-(2,2,2-trifluoroethylidene) bicyclo[2.2.1]heptane-2-carboxamide], for which the EC50 turned out to be 377 nM. The compound `COc1ccc(/C=C/C(=O)N2CCO[C@@H](CO)C2)cc1C(=O)N[C@H]1[C@@H](C(=O)Nc2ccc(F)c(C(F)(F)F)c2)[C@H]2CC[C@@H]1/C2=C\C(F)(F)F` [Example 310] had an EC50 of 87 nM.

Turning to `COc1c(F)cc(C(=O)N2CC3(CC(O)C3)C2)cc1C(=O)N[C@H]1[C@@H](C(=O)Nc2ccc(F)c(C(F)(F)F)c2)[C@H]2CC[C@@H]1/C2=C\C1CCCC1` [Example 371, (1R,2S,3R,4R,7Z)-7-(cyclopentyl-methylidene)-N-[4-fluoro-3-(trifluoromethyl)phenyl]-3-(3-fluoro-5-{6-hydroxy-2-azaspiro[3.3]heptane-2-carbonyl}-2-methoxybenzamido) bicyclo[2.2.1]heptane-2-carboxamide], the EC50 was 2.8 nM. This EC50 lies about 31-fold lower than the previous one. Regarding `COc1ccc(CCC(=O)O)cc1C(=O)N[C@@H]1C2CCC(/C2=C/C(F)(F)F)[C@@H]1C(=O)Nc1ccc(F)c(C(F)(F)F)c1` (stereo partly drawn) [Example 9, 3-(3-{[(2R,3S,7Z)-3-{[4-fluoro-3-(trifluoromethyl)phenyl]carbamoyl}-7-(2,2,2-trifluoroethylidene)bicyclo[2.2.1]heptan-2-yl]carbamoyl}-4-methoxyphenyl) propanoic acid], a half-maximal effect (EC50) was put at 255 nM.

The compound “(1R,4R,7Z)-7-(2- cyclobutylethylidene)- N-[4-fluoro-3- (trifluoromethyl) phenyl]-3-[5-(3- hydroxypropyl)-2- methoxybenzamido] bicyclo[2.2.1]heptane- 2-carboxamide [Example 261]” came in with an EC50 of 147 nM. `COc1ccc(C(=O)N2CC[C@@H](O)C2)cc1C(=O)N[C@H]1[C@@H](C(=O)Nc2ccc(F)c(C(F)(F)F)c2)[C@H]2CC[C@@H]1/C2=C\C1CC1` [Example 244, (1R,2S,3R,4R,7Z)-7-(cyclopropyl-methylidene)-N-[4-fluoro-3-(trifluoromethyl)phenyl]-3-{5-[(3R)-3-hydroxypyrrolidine-1-carbonyl]-2-methoxybenzamido} bicyclo[2.2.1]heptane-2-carboxamide]: a half-maximal effect (EC50) was put at 11 nM.

In turn, `COc1ccc(/C=C(\C)C(=O)N2CCC(O)CC2)cc1C(=O)N[C@H]1[C@@H](C(=O)Nc2ccc(F)c(C(F)(F)F)c2)[C@H]2CC[C@@H]1/C2=C\C(F)(F)F` [Example 312, (1R,2S,3R,4R,7Z)-N-[4-fluoro-3-(trifluoromethyl)phenyl]-3-{5-[(1E)-3-(4-hydroxypiperidin-1-yl)-2-methyl-3-oxoprop-1-en-1-yl]-2-methoxybenzamido}-7-(2,2,2-trifluoroethylidene) bicyclo[2.2.1]heptane-2-carboxamide] came in with an EC50 of 31.4 nM.
